These are literature values, as cited in US5520931A (Gacell Laboratories AB, priority 1992, dated 1996).

SMILES strings stand for the structures.

The subject of the data set is cancer pain. The conditions noted are these: severe pain, WHO programme.

In the case of `CN1CC[C@]23c4c5ccc(O)c4O[C@H]2[C@@H](O)C=C[C@H]3[C@H]1C5` [morphine], the “efficacy and acceptability in advanced cancer pain” value was “both efficacious and acceptable”.
